Patent publication US4316957A, “Process for the production of 7-deazaadenosine and 7-deazainosine” (Abbott Laboratories, priority 1977, dated 1982)
Converted amounts (≈) assume the structure as drawn. Where two headings read alike, the source gives them in different places.

Experiments:
[1] = system: Bacillus subtilis KY 4273; experiment: Antibacterial spectrum by agar dilution method (pH 7.0); format: cell-based
From the text: (§1) The antibacterial spectra of 7-deazaadenosine and 7-deazainosine against various microorganisms by agar dilution method (pH 7.0) are shown in the following Table 3.

[2] = system: Comamonas terrigena KY 4174; experiment: as above; format: cell-based
From the text: as §1

Escherichia coli KY 4271 = experiment: as above; format: cell-based
From the text: as §1

[3] = system: Mycobacterium smegmatis KY 3848; experiment: as above; format: cell-based; conditions: Mycolicibacterium smegmatis
From the text: as §1

[4] = system: Mycobacterium phlei KY 3486; experiment: as above; format: cell-based; conditions: Mycolicibacterium phlei
From the text: as §1

[5] = system: Pseudomonas alcaligenes KY 4656; experiment: as above; format: cell-based; conditions: Aquipseudomonas alcaligenes
From the text: as §1

Solubility = format: physicochemical

MIC ([1]; KY4273, Bacillus subtilis KY 4273, agar dilution, pH 7.0, read-out: MIC)	MIC ([2]; KY4174, Comamonas terrigena KY 4174, agar dilution, pH 7.0, read-out: MIC)	MIC (Escherichia coli KY 4271; KY4271, Escherichia coli KY 4271, agar dilution, pH 7.0, read-out: MIC)	MIC ([3]; KY3848, Mycobacterium smegmatis KY 3848, agar dilution, pH 7.0, read-out: MIC)	MIC ([4]; KY3486, Mycobacterium phlei KY 3486, agar dilution, pH 7.0, read-out: MIC)	MIC ([5]; KY4656, Pseudomonas alcaligenes KY 4656, agar dilution, pH 7.0, read-out: MIC)	Structure (SMILES)	Solubility (Solubility; in hexane, benzene and ether)	Solubility (Solubility; in methanol)	Solubility (Solubility; in water)	MIC ([1]; Bacillus subtilis, KY4273, pH 7)	MIC ([2]; Comamonas terrigena, KY4174, pH 7)	MIC (Escherichia coli KY 4271; Escherichia coli, KY4271, pH 7)	MIC ([3]; KY3848, pH 7)	MIC ([4]; KY3486, pH 7)	MIC ([5]; KY4656, pH 7)
> 100 µg/mL	40 µg/mL (≈ 150 µM)	> 100 µg/mL	> 100 µg/mL	< 0.045 µg/mL	40 µg/mL (≈ 150 µM)	O=c1[nH]cnc2c1ccn2[C@@H]1O[C@H](CO)[C@@H](O)[C@H]1O [7-Deazainosine, 7-deazainosine]	insoluble	poorly soluble	Soluble	–	–	–	–	–	–
–	–	–	–	–	–	Nc1ncnc2c1ccn2[C@@H]1O[C@H](CO)[C@@H](O)[C@H]1O [7-Deazaadenosine, 7-deazaadenosine]	insoluble	poorly soluble	Soluble	100 µg/mL (≈ 376 µM)	10 µg/mL (≈ 37.6 µM)	> 100 µg/mL	20 µg/mL (≈ 75.1 µM)	< 0.045 µg/mL	10 µg/mL (≈ 37.6 µM)
